By IC50 is commonly meant the concentration that gives 50% inhibition.

Our source for the IC50 values is patent US9969694B2, “N-(arylalkyl)-N′-pyrazolyl-urea, thiourea, guanidine and cyanoguanidine compounds as TrkA kinase inhibitors” (Array BioPharma Inc., priority 2012, dated 2018).

This assay deals with T1, His-tagged recombinant human TrkA (Homo sapiens, UniProt P04629).
T1 construct: 6HIS tagged cytoplasmic domain from Invitrogen, Catalog No. PV3144; purchased Invitrogen PV3144
T1 sequence (P04629 440-796 limits assumed): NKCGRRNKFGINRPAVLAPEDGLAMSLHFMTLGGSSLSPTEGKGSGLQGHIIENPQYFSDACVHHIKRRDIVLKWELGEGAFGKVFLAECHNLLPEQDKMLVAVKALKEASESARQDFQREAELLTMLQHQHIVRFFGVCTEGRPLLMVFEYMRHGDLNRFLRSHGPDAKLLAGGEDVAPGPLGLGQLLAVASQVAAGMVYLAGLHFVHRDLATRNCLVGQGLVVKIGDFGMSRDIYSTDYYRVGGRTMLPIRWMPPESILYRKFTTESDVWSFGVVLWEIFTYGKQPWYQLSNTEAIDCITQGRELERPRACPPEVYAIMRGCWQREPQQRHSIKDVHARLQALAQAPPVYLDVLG
Put plainly: TrkA Kinase Binding Assay (LanthaScreen Eu). Conditions: averaged IC50; TR-FRET binding, 60 min, 22° C.; read-out: TrkA Enzyme IC50. The essentials:
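TR-FRET tracer displacement: 5 nM His-tagged TrkA cytoplasmic domain with 4 nM Tracer 236, biotinylated anti-His and Eu-streptavidin in pH 7.5 MOPS buffer, 2% DMSO, 60 min at 22 °C. 665/615 nm emission ratio gave percent of control; IC50 from four-parameter fit.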
Background: Time-resolved FRET reads energy transfer from a long-lived donor to a nearby acceptor.
In the case of `COCc1ccc(OC(F)(F)F)c(CNC(=O)Nc2c(C)c(OCC3CN(C)C3)nn2-c2ccccc2)c1` [Example 75, 1-(5-(methoxymethyl)-2-(trifluoromethoxy)benzyl)-3-(4-methyl-3-((1-methylazetidin-3-yl)methoxy)-1-phenyl-1H-pyrazol-5-yl)urea], the IC50 is less than 100 nM. Turning to `COCc1ccc(OC(F)(F)F)c(CNC(=O)Nc2c(C)c(OCC3(F)CCN(C)C3)nn2-c2ccccc2)c1` (stereo not shown) [Example 76, 1-(3-((3-fluoro-1-methylpyrrolidin-3-yl)methoxy)-4-methyl-1-phenyl-1H-pyrazol-5-yl)-3-(5-(methoxymethyl)-2-(trifluoromethoxy)benzyl)urea], the concentration for half-maximal inhibition (IC50) is less than 100 nM. Regarding `COCc1ccc(OC(F)(F)F)c(CNC(=O)Nc2c(C)c(Oc3ccccc3)nn2-c2ccccc2)c1` [Example 77, 1-(5-(methoxymethyl)-2-(trifluoromethoxy)benzyl)-3-(4-methyl-3-phenoxy-1-phenyl-1H-pyrazol-5-yl)urea], the half-maximal inhibitory concentration (IC50) fell in the range of 100 to 1000 nM.

Regarding `COCc1ccc(OC(F)(F)F)c(CNC(=O)Nc2c(C)c(OC3CCNCC3)nn2-c2ccccc2)c1` [Example 78, 1-(5-(methoxymethyl)-2-(trifluoromethoxy)benzyl)-3-(4-methyl-1-phenyl-3-(piperidin-4-yloxy)-1H-pyrazol-5-yl)urea], the 50% inhibitory concentration (IC50) is less than 100 nM. The value for `COCc1ccc(OC(F)(F)F)c(CNC(=O)Nc2c(C)c(OC3CC4(CNC4)C3)nn2-c2ccccc2)c1` [Example 79, 1-(3-(2-azaspiro[3.3]heptan-6-yloxy)-4-methyl-1-phenyl-1H-pyrazol-5-yl)-3-(5-(methoxymethyl)-2-(trifluoromethoxy)benzyl)urea] was less than 100 nM. As for `COCc1ccc(OC(F)(F)F)c(CNC(=O)Nc2c(C)c(O[C@H]3CNC[C@H]3F)nn2-c2ccccc2)c1` [Example 80, 1-(3-(((3S,4R)-4-fluoropyrrolidin-3-yl)oxy)-4-methyl-1-phenyl-1H-pyrazol-5-yl)-3-(5-(methoxymethyl)-2-(trifluoromethoxy)benzyl)urea], the IC50 was less than 100 nM. In the case of `COCc1ccc(OC(F)(F)F)c(CNC(=O)Nc2c(C)c(O[C@H]3CN(C)C[C@H]3F)nn2-c2ccccc2)c1` [Example 81, 1-(3-(((3S,4R)-4-fluoro-1-methylpyrrolidin-3-yl)oxy)-4-methyl-1-phenyl-1H-pyrazol-5-yl)-3-(5-(methoxymethyl)-2-(trifluoromethoxy)benzyl)urea] it was less than 100 nM; in that of `COCc1ccc(OC(F)(F)F)c(CNC(=O)Nc2c(C)c(O[C@@H]3CCN(C)C3)nn2-c2ccccc2)c1` [Example 82, (R)-1-(5-(methoxymethyl)-2-(trifluoromethoxy)benzyl)-3-(4-methyl-3-((1-methylpyrrolidin-3-yl)oxy)-1-phenyl-1H-pyrazol-5-yl)urea], less than 100 nM. `COCc1ccc(OC(F)(F)F)c(CNC(=O)Nc2c(C)c(O[C@H]3CCNC3)nn2-c2ccccc2)c1` [Example 83, (S)-1-(5-(methoxymethyl)-2-(trifluoromethoxy)benzyl)-3-(4-methyl-1-phenyl-3-(pyrrolidin-3-yloxy)-1H-pyrazol-5-yl)urea]: the IC50 is less than 100 nM.

For `COCc1ccc(OC(F)(F)F)c(CNC(=O)Nc2c(C)c(O[C@@H]3CCNC3)nn2-c2ccccc2)c1` [Example 84, (R)-1-(5-(methoxymethyl)-2-(trifluoromethoxy)benzyl)-3-(4-methyl-1-phenyl-3-(pyrrolidin-3-yloxy)-1H-pyrazol-5-yl)urea], the IC50 was less than 100 nM. For `COCc1ccc(OC(F)(F)F)c(CNC(=O)Nc2c(C)c(OC3CC4(C3)CN(C)C4)nn2-c2ccccc2)c1` [Example 85, 1-(5-(methoxymethyl)-2-(trifluoromethoxy)benzyl)-3-(4-methyl-3-((2-methyl-2-azaspiro[3.3]heptan-6-yl)oxy)-1-phenyl-1H-pyrazol-5-yl)urea], the IC50 was less than 100 nM. Turning to `COCc1ccc(OC(F)(F)F)c(CNC(=O)Nc2c(C)c(OCC3(F)CNC3)nn2-c2ccccc2)c1` [Example 86, 1-(3-((3-fluoroazetidin-3-yl)methoxy)-4-methyl-1-phenyl-1H-pyrazol-5-yl)-3-(5-(methoxymethyl)-2-(trifluoromethoxy)benzyl)urea], the half-inhibitory concentration (IC50) was less than 100 nM. As for `COCc1ccc(OC(F)(F)F)c(CNC(=O)Nc2c(C)c(OC[C@@H]3CCNC[C@H]3F)nn2-c2ccccc2)c1` [Example 87, 1-(3-(((3S,4S)-3-fluoropiperidin-4-yl)methoxy)-4-methyl-1-phenyl-1H-pyrazol-5-yl)-3-(5-(methoxymethyl)-2-(trifluoromethoxy)benzyl)urea], the IC50 was less than 100 nM. The value for `COCc1ccc(OC(F)(F)F)c(CNC(=O)Nc2c(C)c(OC[C@H]3CCNC[C@H]3F)nn2-c2ccccc2)c1` [Example 88, 1-(3-(((3S,4R)-3-fluoropiperidin-4-yl)methoxy)-4-methyl-1-phenyl-1H-1-pyrazol-5-yl)-3-(5-(methoxymethyl)-2-(trifluoromethoxy)benzyl)urea 2,2,2-trifluoroacetate] was less than 100 nM. Take `COCc1ccc(OC(F)(F)F)c(CNC(=O)Nc2c(C)c(OC3CNC3)nn2-c2ccccc2)c1` [Example 89, 1-(3-(azetidin-3-yloxy)-4-methyl-1-phenyl-1H-pyrazol-5-yl)-3-(5-(methoxymethyl)-2-(trifluoromethoxy)benzyl)urea]: the half-maximal inhibitory concentration (IC50) was less than 100 nM. In the case of `COCc1ccc(OC(F)(F)F)c(CNC(=O)Nc2c(C)c(OC3CC4(CCN4)C3)nn2-c2ccccc2)c1` (stereo not shown) [Example 90, 1-(3-(1-azaspiro[3.3]heptan-6-yloxy)-4-methyl-1-phenyl-1H-pyrazol-5-yl)-3-(5-(methoxymethyl)-2-(trifluoromethoxy)benzyl)urea] it was less than 100 nM; in that of `COCc1ccc(OC(F)(F)F)c(CNC(=O)Nc2c(C)c(OC[C@H]3CCN3)nn2-c2ccccc2)c1` [Example 91, (R)-1-(3-(azetidin-2-ylmethoxy)-4-methyl-1-phenyl-1H-pyrazol-5-yl)-3-(5-(methoxymethyl)-2-(trifluoromethoxy)benzyl)urea], less than 100 nM; in that of `COCc1ccc(OC(F)(F)F)c(CNC(=O)Nc2c(C)c(OC[C@@H]3CCN3)nn2-c2ccccc2)c1` [Example 92, (S)-1-(3-(azetidin-2-ylmethoxy)-4-methyl-1-phenyl-1H-pyrazol-5-yl)-3-(5-(methoxymethyl)-2-(trifluoromethoxy)benzyl)urea], less than 100 nM. Consider `COCc1ccc(OC(F)(F)F)c(CNC(=O)Nc2c(C)c(OCC3CCN(C)CC3)nn2-c2ccccc2)c1` [Example 93, 1-(5-(methoxymethyl)-2-(trifluoromethoxy)benzyl)-3-(4-methyl-3-((1-methylpiperidin-4-yl)methoxy)-1-phenyl-1H-pyrazol-5-yl)urea], for which the IC50 was less than 100 nM. As for `COCc1ccc(OC(F)(F)F)c(CNC(=O)Nc2c(C)c(OC3CC4(CCN4C)C3)nn2-c2ccccc2)c1` (stereo not shown) [Example 94, 1-(5-(methoxymethyl)-2-(trifluoromethoxy)benzyl)-3-(4-methyl-3-((1-methyl-1-azaspiro[3.3]heptan-6-yl)oxy)-1-phenyl-1H-pyrazol-5-yl)urea 2,2,2-trifluoroacetate], the half-maximal inhibitory concentration (IC50) is less than 100 nM. As to `COCc1ccc(OC(F)(F)F)c(CNC(=O)Nc2c(C)c(O[C@@H]3CCNC[C@H]3F)nn2-c2ccccc2)c1` [Example 95, 1-(3-(((3R,4R)-3-fluoropiperidin-4-yl)oxy)-4-methyl-1-phenyl-1H-pyrazol-5-yl)-3-(5-(methoxymethyl)-2-(trifluoromethoxy)benzyl)urea], the IC50 is less than 100 nM. Regarding `COCc1ccc(OC(F)(F)F)c(CNC(=O)Nc2c(C)c(OC[C@H](C)N)nn2-c2ccccc2)c1` [Example 96, (S)-1-(3-(2-aminopropoxy)-4-methyl-1-phenyl-1H-pyrazol-5-yl)-3-(5-(methoxymethyl)-2-(trifluoromethoxy)benzyl)urea], the IC50 is less than 100 nM.

On to `COCc1ccc(OC(F)(F)F)c(CNC(=O)Nc2c(C)c(OC[C@@H](C)N)nn2-c2ccccc2)c1` [Example 97, (R)-1-(3-(2-aminopropoxy)-4-methyl-1-phenyl-1H-pyrazol-5-yl)-3-(5-(methoxymethyl)-2-(trifluoromethoxy)benzyl)urea], for which the concentration for half-maximal inhibition (IC50) was less than 100 nM. The value for `COCc1ccc(OC(F)(F)F)c(CNC(=O)Nc2c(C)c(O[C@@H]3CCN(C)C[C@H]3F)nn2-c2ccccc2)c1` [Example 98, 1-(3-(((3R,4R)-3-fluoro-1-methylpiperidin-4-yl)oxy)-4-methyl-1-phenyl-1H-pyrazol-5-yl)-3-(5-(methoxymethyl)-2-(trifluoromethoxy)benzyl)urea] was less than 100 nM. In the case of `COCc1ccc(OC(F)(F)F)c(CNC(=O)Nc2c(C)c(O[C@@H]3CCNC[C@@H]3F)nn2-c2ccccc2)c1` [Example 99, 1-(3-(((3S,4R)-3-fluoropiperidin-4-yl)oxy)-4-methyl-1-phenyl-1H-pyrazol-5-yl)-3-(5-(methoxymethyl)-2-(trifluoromethoxy)benzyl)urea] it was less than 100 nM; in that of `COCc1ccc(OC(F)(F)F)c(CNC(=O)Nc2c(C)c(O[C@H]3C[C@H](N)C3)nn2-c2ccccc2)c1` [Example 100, 1-(3-((1r,3r)-3-aminocyclobutoxy)-4-methyl-1-phenyl-1H-pyrazol-5-yl)-3-(5-(methoxymethyl)-2-(trifluoromethoxy)benzyl)urea], less than 100 nM.

Regarding `COCc1ccc(OC(F)(F)F)c(CNC(=O)Nc2c(C)c(O[C@@H]3CCN(C)C[C@@H]3F)nn2-c2ccccc2)c1` [Example 101, 1-(3-(((3S,4R)-3-fluoro-1-methylpiperidin-4-yl)oxy)-4-methyl-1-phenyl-1H-pyrazol-5-yl)-3-(5-(methoxymethyl)-2-(trifluoromethoxy)benzyl)urea], the IC50 is less than 100 nM. As to `COCc1ccc(OC(F)(F)F)c(CNC(=O)Nc2c(C)c(OC[C@H]3COCCN3)nn2-c2ccccc2)c1` [Example 102, (R)-1-(5-(methoxymethyl)-2-(trifluoromethoxy)benzyl)-3-(4-methyl-3-(morpholin-3-ylmethoxy)-1-phenyl-1H-pyrazol-5-yl)urea], the half-maximal inhibitory concentration (IC50) was less than 100 nM.
